# Data from US9586948B2, “Inhibitors of IRAK4 activity” (MERCK SHARP & DOHME CORP., priority 2012, dated 2017).
# Biological target: GST tagged IRAK4 (Homo sapiens (Human), UniProt Q9NWZ3)
# Experiment: Determination of IRAK4 kinase activity (IMAP fluorescence polarization)
# Type: biochemical
# Conditions: 0.5 nM GST tagged IRAK4, 100 nM fluorescent peptide substrate RP7030, 100 μM ATP, 30 minutes at 25° C.
# Method: The kinase activity of IRAK4 is determined by its ability to catalyze the phosphorylation of a fluorescent polypeptide substrate. The extent of phosphorylation is measured using IMAP technology (Molecular Devices) where the phosphorylated fluorescent substrate binds to the large M(III)-based nanoparticles which reduces the rotational speed of the substrate and thus increases its fluorescent polarization (FP).
# Procedure: A 20 μl reaction mixture contains 10 mM TriHCl, pH 7.2, 0.5 nM GST tagged IRAK4 (SignalChem), 100 nM fluorescent peptide substrate (RP7030, Molecular Devices), 100 μM ATP, 1 mM DTT, 1 mM MgCl2, and 0.01% Tween 20. The reaction is initiated by the addition of ATP. After incubation for 30 minutes at 25° C., 60 μl of Progressive IMAP Reagent (Molecular Devices) is added to stop the reaction. Change in RP7030's FP is determined by a FP reader (Analyst HT, LJL BioSystems).
# GST tagged IRAK4, sequence (Q9NWZ3 whole entry): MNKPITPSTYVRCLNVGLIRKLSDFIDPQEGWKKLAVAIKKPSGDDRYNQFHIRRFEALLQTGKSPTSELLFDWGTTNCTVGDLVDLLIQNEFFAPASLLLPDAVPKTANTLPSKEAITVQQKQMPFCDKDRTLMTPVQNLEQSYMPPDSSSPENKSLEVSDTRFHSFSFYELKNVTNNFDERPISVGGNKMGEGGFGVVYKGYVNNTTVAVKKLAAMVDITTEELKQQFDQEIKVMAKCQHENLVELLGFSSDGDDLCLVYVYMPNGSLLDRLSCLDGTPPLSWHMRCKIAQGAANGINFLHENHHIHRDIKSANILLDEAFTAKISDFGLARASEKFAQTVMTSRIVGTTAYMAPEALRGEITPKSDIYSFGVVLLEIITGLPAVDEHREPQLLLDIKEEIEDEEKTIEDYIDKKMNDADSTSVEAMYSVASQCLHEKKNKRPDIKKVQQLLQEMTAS
row,IC50 [nM],Compound
1,535,"CN(C)CCCNC(=O)c1nn(C)cc1NC(=O)c1cccc(-c2ccnc(NCC3CC3)c2)n1 [Example 40, 2′-((cyclopropylmethyl)amino)-N-(3-((3-(dimethylamino)propyl)carbamoyl)-1-methyl-1H-pyrazol-4-yl)-[2,4′-bipyridine]-6-carboxamide]"
2,201,"CNC(=O)c1cccc(-c2cccc(C(=O)Nc3cn(C)nc3C(N)=O)n2)c1 [Example 24, N-(3-carbamoyl-1-methyl-1H-pyrazol-4-yl)-6-(3-(methylcarbamoyl)phenyl)picolinamide]"
3,362,"Cn1cc(NC(=O)c2cccc(-c3ccsc3)n2)c(C(N)=O)n1 [Example 22, N-(3-carbamoyl-1-methyl-1H-pyrazol-4-yl)-6-(thiophen-3-yl)picolinamide]"
4,1100,"Cn1cc(NC(=O)c2cccc(-c3ccc(N4CCOCC4)nc3)n2)c(C(N)=O)n1 [Example 23, N-(3-carbamoyl-1-methyl-1H-pyrazol-4-yl)-6′-morpholino-[2,3′-bipyridine]-6-carboxamide]"
5,2680,"Cn1cc(NC(=O)c2cccc(-c3ccnc(NCC4CC4)c3)n2)c(C(=O)NCCn2cccn2)n1 [Example 50, N-(3-((2-(1H-pyrazol-1-yl)ethyl)carbamoyl)-1-methyl-1H-pyrazol-4-yl)-2′-((cyclopropylmethyl)amino)-[2,4′-bipyridine]-6-carboxamide]"
6,1100,"Cn1cc(NC(=O)c2cncc(-c3ccnc(NCC4CC4)c3)c2)c(C(N)=O)n1 [Example 7, N-(3-carbamoyl-1-methyl-1H-pyrazol-4-yl)-2′-(cyclopropylmethylamino)-3,4′-bipyridine-5-carboxamide]"
7,1060,"Cn1cc(NC(=O)c2cccc(-c3ccnc(NCC4CC4)c3)n2)c(C(=O)NCCN2CCCC2)n1 [Example 35, 2′-((cyclopropylmethyl)amino)-N-(1-methyl-3-((2-(pyrrolidin-1-yl)ethyl)carbamoyl)-1H-pyrazol-4-yl)-[2,4′-bipyridine]-6-carboxamide]"
8,1900,"Cn1cc(NC(=O)c2cccc(-c3ccncc3)n2)c(C(N)=O)n1 [Example 11, N-(3-carbamoyl-1-methyl-1H-pyrazol-4-yl)-2,4′-bipyridine-6-carboxamide]"
9,426,"Cn1cc(NC(=O)c2cccc(C3=CCOCC3)n2)c(C(N)=O)n1 [Example 30, N-(3-carbamoyl-1-methyl-1H-pyrazol-4-yl)-6-(3,6-dihydro-2H-pyran-4-yl)picolinamide]"
10,1450,"Cn1cc(NC(=O)c2ccnc(-c3ccnc(NCC4CC4)c3)c2)c(C(N)=O)n1 [Example 5, N-(3-carbamoyl-1-methyl-1H-pyrazol-4-yl)-2′-(cyclopropylmethylamino)-2,4′-bipyridine-4-carboxamide]"
11,94,"Cn1cc(NC(=O)c2cccc(-c3ccc(C4CC4)nc3)n2)c(C(N)=O)n1 [Example 28, N-(3-carbamoyl-1-methyl-1H-pyrazol-4-yl)-6′-cyclopropyl-[2,3′-bipyridine]-6-carboxamide]"
12,134,"Cn1cc(NC(=O)c2cccc(C3=CCCOC3)n2)c(C(N)=O)n1 [Example 27, N-(3-carbamoyl-1-methyl-1H-pyrazol-4-yl)-6-(5,6-dihydro-2H-pyran-3-yl)picolinamide]"
13,1540,"Cn1cc(NC(=O)c2cccc(-c3ccnc(NCC4CC4)c3)n2)c(C(=O)NCc2ncc[nH]2)n1 [Example 36, N-(3-(((1H-imidazol-2-yl)methyl)carbamoyl)-1-methyl-1H-pyrazol-4-yl)-2′-((cyclopropylmethyl)amino)-[2,4′-bipyridine]-6-carboxamide]"
14,82,"CN1CCC(c2cccc(C(=O)Nc3cn(C)nc3C(N)=O)n2)=CC1=O [Example 32, N-(3-carbamoyl-1-methyl-1H-pyrazol-4-yl)-1′-methyl-6′-oxo-1′,2′,3′,6′-tetrahydro-[2,4′-bipyridine]-6-carboxamide]"
15,32,"Cn1cc(-c2cccc(C(=O)Nc3cn(C)nc3C(N)=O)n2)cn1 [Example 25, N-(3-carbamoyl-1-methyl-1H-pyrazol-4-yl)-6-(1-methyl-1H-pyrazol-4-yl)picolinamide]"
16,620,"Cn1cc(NC(=O)c2cccc(-c3cnccc3Cl)n2)c(C(N)=O)n1 [Example 31, N-(3-carbamoyl-1-methyl-1H-pyrazol-4-yl)-4′-chloro-[2,3′-bipyridine]-6-carboxamide]"
17,477,"Cn1cc(NC(=O)c2cccc(-c3ccnc(NCC4CCOCC4)c3)n2)c(C(N)=O)n1 [Example 17, N-(3-carbamoyl-1-methyl-1H-pyrazol-4-yl)-2′-(((tetrahydro-2H-pyran-4-yl)methyl)amino)-[2,4′-bipyridine]-6-carboxamide]"

row,IC50 [nM],Compound
1,2280,"Cn1cc(NC(=O)c2cccc(-c3ccnc(NCC4CC4)c3)n2)c(C(=O)NC2CCOC2)n1 (stereo not drawn) [Example 51, 2′-((cyclopropylmethyl)amino)-N-(1-methyl-3-((tetrahydrofuran-3-yl)carbamoyl)-1H-pyrazol-4-yl)-[2,4′-bipyridine]-6-carboxamide]"
2,637,"COc1cccc(-c2cccc(C(=O)Nc3cn(C)nc3C(N)=O)n2)c1 [Example 13, N-(3-carbamoyl-1-methyl-1H-pyrazol-4-yl)-6-(3-methoxyphenyl)picolinamide]"
3,3220,"Cn1cc(NC(=O)c2cccc(N3CCOCC3)n2)c(C(N)=O)n1 [Example 9, N-(3-carbamoyl-1-methyl-1H-pyrazol-4-yl)-6-morpholinopicolinamide]"
4,190,"Cn1cc(NC(=O)c2cccc(-c3ccnc(NCC4CC4)c3)n2)c(C(=O)N2CC(CN)C2)n1 [Example 42, N-(3-(3-(aminomethyl)azetidine-1-carbonyl)-1-methyl-1H-pyrazol-4-yl)-2′-((cyclopropylmethyl)amino)-[2,4′-bipyridine]-6-carboxamide]"
5,739,"CN1CCC=C(c2cccc(C(=O)Nc3cn(C)nc3C(N)=O)n2)C1 [Example 33, N-(3-carbamoyl-1-methyl-1H-pyrazol-4-yl)-1′-methyl-1′,2′,5′,6′-tetrahydro-[2,3′-bipyridine]-6-carboxamide]"
6,2910,"CN1CCN(C(=O)c2nn(C)cc2NC(=O)c2cccc(-c3ccnc(NCC4CC4)c3)n2)CC1 [Example 39, 2′-((cyclopropylmethyl)amino)-N-(1-methyl-3-(4-methylpiperazine-1-carbonyl)-1H-pyrazol-4-yl)-[2,4′-bipyridine]-6-carboxamide]"
7,2260,"Cn1cc(NC(=O)c2cccc(-c3cccc(OC(F)(F)F)c3)n2)c(C(N)=O)n1 [Example 21, N-(3-carbamoyl-1-methyl-1H-pyrazol-4-yl)-6-(3-(trifluoromethoxy)phenyl)picolinamide]"
8,3450,"Cn1cc(NC(=O)c2cccc(N3CCNCC3)n2)c(C(N)=O)n1 [Example 10, N-(3-carbamoyl-1-methyl-1H-pyrazol-4-yl)-6-(piperazin-1-yl)picolinamide]"
9,283,"Cn1cc(NC(=O)c2ccnc(-c3ccnc(NCC4CC4)c3)n2)c(C(N)=O)n1 [Example 19, N-(3-carbamoyl-1-methyl-1H-pyrazol-4-yl)-2-(2-((cyclopropylmethyl)amino)pyridin-4-yl)pyrimidine-4-carboxamide]"
10,186,"CN(C)[C@H]1CN(C(=O)c2nn(C)cc2NC(=O)c2cccc(-c3ccnc(NCC4CC4)c3)n2)C[C@@H]1O [Example 46, 2′-((cyclopropylmethyl)amino)-N-(3-((3S,4S)-3-(dimethylamino)-4-hydroxypyrrolidine-1-carbonyl)-1-methyl-1H-pyrazol-4-yl)-[2,4′-bipyridine]-6-carboxamide]"
11,2720,"Cn1ncc(NC(=O)c2cccc(-c3ccnc(NCC4CC4)c3)n2)c1C(N)=O [Example 8, N-(5-carbamoyl-1-methyl-1H-pyrazol-4-yl)-2′-(cyclopropylmethylamino)-2,4′-bipyridine-6-carboxamide]"
12,196,"Cn1cc(NC(=O)c2cccc(-c3ccnc(NCC(F)F)c3)n2)c(C(N)=O)n1 [Example 16, N-(3-carbamoyl-1-methyl-1H-pyrazol-4-yl)-2′-((2,2-difluoroethyl)amino)-[2,4′-bipyridine]-6-carboxamide]"
13,2670,"Cn1cc(NC(=O)c2cccc(-c3ccnc(NCC4CC4)c3)n2)c(C(=O)NCCc2cnccn2)n1 [Example 44, 2′-((cyclopropylmethyl)amino)-N-(1-methyl-3-((2-(pyrazin-2-yl)ethyl)carbamoyl)-1H-pyrazol-4-yl)-[2,4′-bipyridine]-6-carboxamide]"
14,4380,"Cn1cc(NC(=O)c2cccc(-c3ccnc(NCC4CC4)c3)n2)c(C(=O)NCc2ccncn2)n1 [Example 47, 2′-((cyclopropylmethyl)amino)-N-(1-methyl-3-((pyrimidin-4-ylmethyl)carbamoyl)-1H-pyrazol-4-yl)-[2,4′-bipyridine]-6-carboxamide]"
15,4970,"Cn1cc(NC(=O)c2cccc(-c3ccnc(NCC4CC4)c3)n2)c(C(=O)NCCc2ccccn2)n1 [Example 38, 2′-((cyclopropylmethyl)amino)-N-(1-methyl-3-((2-(pyridin-2-yl)ethyl)carbamoyl)-1H-pyrazol-4-yl)-[2,4′-bipyridine]-6-carboxamide]"
16,127,"Cn1cc(NC(=O)c2cccc(-c3ccnc(NCC(F)(F)F)c3)n2)c(C(N)=O)n1 [Example 18, N-(3-carbamoyl-1-methyl-1H-pyrazol-4-yl)-2′-((2,2,2-trifluoroethyl)amino)-[2,4′-bipyridine]-6-carboxamide]"
